Assay results published in ChEMBL document CHEMBL4261651, “Probing the ligand preferences of the three types of bacterial pantothenate kinase” (Bioorg Med Chem, 2018).
Converted amounts (≈) assume the structure as drawn.

What was measured:
[1] = molecular target: T1, Type III pantothenate kinase (Bacillus anthracis, UniProt Q81VX4); assay: Inhibition of Bacillus anthracis pantothenate kinase 3
T1 sequence (Q81VX4 whole entry): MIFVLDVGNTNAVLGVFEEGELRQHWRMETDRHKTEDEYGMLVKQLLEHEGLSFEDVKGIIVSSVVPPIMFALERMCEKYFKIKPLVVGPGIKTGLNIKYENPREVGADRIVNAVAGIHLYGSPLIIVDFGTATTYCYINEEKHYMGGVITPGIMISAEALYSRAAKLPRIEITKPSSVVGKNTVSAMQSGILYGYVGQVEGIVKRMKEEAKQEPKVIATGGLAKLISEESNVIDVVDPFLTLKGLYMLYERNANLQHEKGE

Staphylococcus aureus [2] = assay: Growth inhibition of Staphylococcus aureus ATCC 29213 at 1230 uM after 16 hrs by broth microdilution method; type: functional; details: ATCC 29213, 16 h, read-out: GI
Staphylococcus aureus [3] = assay: Growth inhibition of Staphylococcus aureus ATCC 29213 at 1000 uM after 16 hrs by broth microdilution method; type: functional; details: ATCC 29213, 16 h, read-out: GI
Staphylococcus aureus [4] = assay: Growth inhibition of Staphylococcus aureus ATCC 29213 at 550 uM after 16 hrs by broth microdilution method; type: functional; details: ATCC 29213, 16 h, read-out: GI
Staphylococcus aureus [5] = assay: Antibacterial activity against Staphylococcus aureus ATCC 29213 after 16 hrs by broth microdilution method; type: functional; details: ATCC 29213, 16 h
Staphylococcus aureus [6] = assay: Growth inhibition of Staphylococcus aureus ATCC 29213 at 1540 uM after 16 hrs by broth microdilution method; type: functional; details: ATCC 29213, 16 h, read-out: GI
Staphylococcus aureus [7] = assay: Growth inhibition of Staphylococcus aureus ATCC 29213 at 860 uM after 16 hrs by broth microdilution method; type: functional; details: ATCC 29213, 16 h, read-out: GI
Staphylococcus aureus [8] = assay: Growth inhibition of Staphylococcus aureus ATCC 29213 at 820 uM after 16 hrs by broth microdilution method; type: functional; details: ATCC 29213, 16 h, read-out: GI

Q: Which Ki [1] does the source give for `Nc1ncnc2c1ncn2[C@@H]1O[C@H](Cn2cc(CO[C@@H]3O[C@H](CO)[C@H](O)[C@H](O)[C@H]3O)nn2)[C@@H](O)[C@H]1O` here?
A: 164 µM

Q: For `O=C(O)CCNC(=O)[C@H](O)CCO`, which inhibition of growth at 1230 µM (Staphylococcus aureus [2]) is on record?
A: 9%

Q: `CC(C)(CO)[C@@H](O)C(=O)NCCCC(=O)O` [HOPANTENIC ACID] was tested. Which inhibition of growth at 1000 µM (Staphylococcus aureus [3]) did it give?
A: 87%

Q: For `CCCCn1cc(CCNC(=O)[C@H](O)C(C)(C)CO)nn1`, which inhibition of growth at 550 µM (Staphylococcus aureus [4]) is on record?
A: 86%

Q: For `COC(=O)CCNC(=O)[C@H](O)C(C)(C)CO`, which inhibition of growth at 1000 µM (Staphylococcus aureus [3]) is on record?
A: 15%

Q: Which inhibition of growth at 1000 µM (Staphylococcus aureus [3]) does the source give for `CC(C)(CO)[C@@H](O)C(=O)NCC(=O)O` here?
A: 18%

Q: For `CCCCCNC(=O)CCNC(=O)[C@H](O)C(C)(C)CO`, which MIC (Staphylococcus aureus [5]) is on record?
A: 14 µM (≈ 4.04 µg/mL)

Q: How did the inhibition of growth at 1000 µM (Staphylococcus aureus [3]) turn out when `COC(=O)CCCNC(=O)[C@H](O)C(C)(C)CO` was run?
A: 16%

Q: For `COC(=O)CNC(=O)[C@H](O)C(C)(C)CO`, which inhibition of growth at 1000 µM (Staphylococcus aureus [3]) is on record?
A: 84%

Q: How did the inhibition of growth at 1540 µM (Staphylococcus aureus [6]) turn out when `CC(C)(CO)[C@@H](O)C(=O)NCc1cn(CCc2ccccc2)nn1` was run?
A: 2%

Q: How did the inhibition of growth at 860 µM (Staphylococcus aureus [7]) turn out when `CCCCCn1cc(CNC(=O)[C@H](O)C(C)(C)CO)nn1` was run?
A: -5%

Q: `CCCCCn1cc(CCNC(=O)[C@H](O)C(C)(C)CO)nn1` was tested. Which inhibition of growth at 860 µM (Staphylococcus aureus [7]) did it give?
A: 99%

Q: With `CCCCCc1cn(CCNC(=O)[C@H](O)C(C)(C)CO)nn1` as the molecule, how does the inhibition of growth at 820 µM (Staphylococcus aureus [8]) read?
A: 72%

Q: Which inhibition of growth at 860 µM (Staphylococcus aureus [7]) does the source give for `CCCc1cn(CCCNC(=O)[C@H](O)C(C)(C)CO)nn1` here?
A: -13%
